Bounds are passed on as bounds.

Series [1] has as its target Cannabinoid receptor 1 (Homo sapiens, UniProt P21554). Nature of the series: Displacement of [3H]-SR141716A from recombinant human CB1 receptor expressed in CHO cells membrane incubated for 90 mins. The class given is cell membranes.
Series [2] deals with T1, Cannabinoid receptor 2 (Homo sapiens, UniProt P34972). Nature of the series: Displacement of [3H]-WIN55212-2 from human CB2 receptor transfected in CHO cells membrane incubated for 90 mins. The class given is cell membranes.
T1 sequence (P34972 whole entry): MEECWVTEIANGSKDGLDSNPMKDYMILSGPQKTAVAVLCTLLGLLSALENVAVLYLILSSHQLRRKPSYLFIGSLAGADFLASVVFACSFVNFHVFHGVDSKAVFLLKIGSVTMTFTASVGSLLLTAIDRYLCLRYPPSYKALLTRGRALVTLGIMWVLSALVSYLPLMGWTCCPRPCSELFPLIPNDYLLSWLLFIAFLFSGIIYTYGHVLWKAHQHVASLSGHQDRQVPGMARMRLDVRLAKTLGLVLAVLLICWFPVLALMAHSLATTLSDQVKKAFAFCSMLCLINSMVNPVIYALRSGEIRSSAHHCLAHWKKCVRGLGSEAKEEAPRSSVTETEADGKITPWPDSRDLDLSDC
The species entered for series [3] is Homo sapiens. Put plainly: Selectivity ratio of Ki for human CB1 receptor to Ki for human CB2 receptor.
For series [4], the species on record is Homo sapiens. Put plainly: Selectivity ratio of Ki for displacement of [3H]-SR141716A from human CB1 receptor to Ki for displacement of [3H]-WIN55212-2 from human CB2 receptor.
In series [5] the target is T1, Cannabinoid receptor 2. Put plainly: Inhibition of human CB2 receptor assessed as inhibition constant. The class given is functional.
Series [6] deals with T1, Cannabinoid receptor 2. Put plainly: Displacement of [18F]-LU13 from human CB2 receptor transfected in CHO cells membrane homogenate incubated for 90 mins by competitive radioligand binding assay. The class given is cell membranes.
Series [7] concerns the target T2, Cannabinoid receptor 2 (Rattus norvegicus, UniProt Q9QZN9).
T2 sequence (Q9QZN9 whole entry): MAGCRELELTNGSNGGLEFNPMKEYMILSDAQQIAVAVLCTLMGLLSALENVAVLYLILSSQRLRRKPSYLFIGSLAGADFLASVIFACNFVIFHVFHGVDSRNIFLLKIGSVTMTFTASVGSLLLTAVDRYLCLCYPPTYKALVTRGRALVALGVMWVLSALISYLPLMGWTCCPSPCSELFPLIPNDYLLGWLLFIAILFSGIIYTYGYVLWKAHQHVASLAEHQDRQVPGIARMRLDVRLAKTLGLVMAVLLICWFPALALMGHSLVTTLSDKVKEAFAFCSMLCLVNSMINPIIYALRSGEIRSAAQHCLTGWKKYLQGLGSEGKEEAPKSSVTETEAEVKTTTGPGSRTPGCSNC
Nature of the series: Displacement of [18F]-LU13 from rat spleen CB2 receptor incubated for 90 mins by competitive radioligand binding assay. The class given is tissue-based.

A short description of series [8]: Drug uptake in iv dosed Wistar rat brain contralateral region overexpressing human CB2 receptor (D80N) assessed as time to peak radioactivity measured after 26 mins of post injection by PET imaging analysis. The conditions noted are these: in vivo. The class given is ADME, organism-based.
A short description of series [9]: Drug uptake in iv dosed Wistar rat brain cerebellum overexpressing human CB2 receptor (D80N) assessed as TAC peak standardized uptake of compound by PET imaging analysis. The class given is ADME, organism-based. The conditions noted are these: in vivo.
A short description of series [10]: Metabolic stability in CD-1 mouse plasma assessed as parent compound remaining measured after 30 mins by radio-HPLC analysis. The class given is ADME, cell-free. The conditions noted are these: read-out: Stability.
Series [11] in a line: Drug uptake in iv dosed Wistar rat brain striatum overexpressing human CB2 receptor (D80N) assessed as TAC peak standardized uptake of compound by PET imaging analysis. The class given is ADME, organism-based. The conditions noted are these: in vivo.
Series [12] is described as follows: Drug uptake in iv dosed Wistar rat brain cerebellum overexpressing human CB2 receptor (D80N) assessed as time to peak radioactivity measured after 26 mins of post infection by PET imaging analysis. The class given is ADME, organism-based. The conditions noted are these: in vivo.
A short description of series [13]: Metabolic stability in CD-1 mouse spleen assessed as parent compound remaining measured after 30 mins by radio-HPLC analysis. The class given is ADME, tissue-based. The conditions noted are these: read-out: Stability.
A short description of series [14]: MRT in iv dosed Wistar rat brain contralateral region overexpressing human CB2 receptor (D80N) by PET imaging analysis. The class given is ADME, organism-based. The conditions noted are these: in vivo.
Series [15] can be described thus: Drug uptake in iv dosed Wistar rat brain striatum overexpressing human CB2 receptor (D80N) assessed as time to peak radioactivity measured after 26 mins of post injection by PET imaging analysis. The class given is ADME, organism-based. The conditions noted are these: in vivo.
A short description of series [16]: MRT in iv dosed Wistar rat brain cerebellum overexpressing human CB2 receptor (D80N) by PET imaging analysis. The settings on record: in vivo. The class given is ADME, organism-based.
Series [17] in a line: Metabolic stability in CD-1 mouse brain assessed as parent compound remaining measured after 30 mins by radio-HPLC analysis. The class given is ADME, tissue-based. The settings on record: read-out: Stability.
The nature of series [18]: Drug uptake in iv dosed Wistar rat brain contralateral region overexpressing human CB2 receptor (D80N) assessed as TAC peak standardized uptake of compound by PET imaging analysis. The conditions noted are these: in vivo. The class given is ADME, organism-based.
Series [19] has as its target T1, Cannabinoid receptor 2. Put plainly: Displacement of [3H]-WIN55212-2 from human CB2 receptor transfected in CHO-K1 cell membrane incubated for 90 mins by Liquid scintillation counter analysis. The class given is cell membranes.
The mark [20] stands for this setting: tested as the 18F-labelled form.

Sequence of Cannabinoid receptor 1 (P21554 whole entry): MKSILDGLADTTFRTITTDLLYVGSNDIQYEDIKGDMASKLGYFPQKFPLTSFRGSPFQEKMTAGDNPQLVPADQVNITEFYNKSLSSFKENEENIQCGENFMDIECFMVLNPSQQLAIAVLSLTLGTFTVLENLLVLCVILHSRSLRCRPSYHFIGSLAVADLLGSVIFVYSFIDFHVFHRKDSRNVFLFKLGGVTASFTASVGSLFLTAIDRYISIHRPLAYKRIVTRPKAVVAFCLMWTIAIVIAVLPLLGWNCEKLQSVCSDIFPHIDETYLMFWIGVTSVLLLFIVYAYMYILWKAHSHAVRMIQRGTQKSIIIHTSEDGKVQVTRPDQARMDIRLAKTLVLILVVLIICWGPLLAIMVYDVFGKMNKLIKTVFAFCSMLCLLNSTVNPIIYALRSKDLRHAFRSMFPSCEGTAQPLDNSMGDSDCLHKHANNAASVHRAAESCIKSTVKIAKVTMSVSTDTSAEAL

Take `O=C(NC12CC3CC(CC(C3)C1)C2)c1cc2cccnc2n(CCOCCF)c1=O`: the results for the Ki in series [1] and in series [2] were 3.9 nM and more than 1000 nM, respectively.

`CCC(CC)(NC(=O)c1ccc(N2CC(OC)C2)c(OC[C@H]2C[C@@H]2CO)n1)C(=O)OCCCF`: the Ratio Ki in [3] (tested as the 18F, 2H-labelled form) is more than 10000.

On to `O=C(NCc1ccc(F)cc1)c1cc2cccnc2n(CCCCF)c1=O`, for which the inhibitory constant (Ki) in [1] was 1100 nM; in series [2], more than 10000 nM.

Regarding `C[C@H]1CC[C@H](NC(=O)c2cc3cccnc3n(CCCF)c2=O)CC1`, the inhibition constant Ki in [1] was 4600 nM.

`C[C@H]1CC[C@@H](NC(=O)c2cc3cccnc3n(CCCCF)c2=O)CC1`: the results for the Ki in series [1] and in [2] were 6 nM and more than 1000 nM, respectively. In addition, in [4], the Ratio Ki was more than 167.

Consider `C[C@H]1CC[C@@H](NC(=O)c2cc3cc(-c4ccco4)cnc3n(Cc3ccc(F)cc3)c2=O)CC1`, for which the Ki stood at 5 nM in series [1] and 915 nM in series [2]. Moreover, the Ratio Ki in series [4] was more than 183.

`O=C(Nc1ccccc1)c1cc2cccnc2n(CCCCF)c1=O`: the figures for the Ki in [1] and in series [2] were 2200 nM and more than 10000 nM, respectively.

For `Cc1s/c(=N\C(=O)C2C(C)(C)C2(C)C)n(CCCCF)c1C`, in series [4] (setting [20]), the Ratio Ki amounted to 1000.

Regarding `O=C(Nc1ccncc1)c1cc2cccnc2n(CCCCF)c1=O`, the Ki in [1] was more than 1000 nM; in series [2], more than 10000 nM.

For `COc1cccc2c(=O)c(C(=O)NC34CC5CC(CC(C5)C3)C4)cn(CCOCCCF)c12`, the Ratio Ki in series [4] (setting [20]) is more than 10000.

`C[C@H]1CC[C@@H](NC(=O)c2cc3cccnc3n(CCCF)c2=O)CC1`: in [1], the Ki was found to be 115 nM.

As to `C[C@H]1CC[C@@H](NC(=O)c2cc3cc(-c4ccco4)cnc3n(Cc3cccc(F)c3)c2=O)CC1`, the Ki in series [1] is 2.9 nM; in [2] it was more than 10000 nM. Further, the Ratio Ki in series [4] is more than 1000.

Regarding `O=C(Nc1ccc(F)cc1)c1cc2cccnc2n(CCCCF)c1=O`, the inhibition constant (Ki) in series [1] was 3900 nM; in series [2], more than 10000 nM.

As to `[2H]C([2H])([18F])C([2H])([2H])C([2H])([2H])OC(=O)C(CC)(CC)NC(=O)c1ccc(N2CC(OC)C2)c(OC[C@H]2C[C@@H]2CO)n1`, in series [5], the inhibition constant (Ki) came to 0.6 nM.

Turning to `C[C@H]1CC[C@@H](NC(=O)c2cc3cc(-c4ccco4)cnc3n(CCCCF)c2=O)CC1`, the inhibition constant (Ki) in [1] was 3.3 nM; in [2], more than 10000 nM. The Ratio Ki in series [4] was more than 303.

Regarding `O=C(NC12CC3CC(CC(C3)C1)C2)c1cc2cccnc2n(Cc2ccc(F)cc2)c1=O`, the Ki is 1.5 nM in series [1] and more than 1000 nM in series [2].

For `O=C(Nc1cccnc1)c1cc2cccnc2n(CCCCF)c1=O`, the Ki in series [1] was more than 1000 nM; in [2] it was more than 10000 nM.

Turning to `CC1CCC(NC(=O)c2cc3cc(Br)cnc3n(Cc3ccc(F)cc3)c2=O)CC1` (mixture of isomers), the results for the Ki in series [1] and in [2] were 1.7 nM and more than 155 nM, respectively. In addition, in series [4], the Ratio Ki was 91.

For the compound `C[C@H]1CC[C@@H](NC(=O)c2cc3cccnc3n(CCOCCF)c2=O)CC1`, the Ki in series [1] is 13 nM; in [2] it was more than 10000 nM. In addition, the Ratio Ki in series [4] was more than 714.

Regarding `Cc1s/c(=N\C(=O)C2C(C)(C)C2(C)C)n(CCCC[18F])c1C`, in series [2], the Ki came to 0.4 nM.

For `O=C(NC12CC3CC(CC(C3)C1)C2)c1cc2cccnc2n(CCCCF)c1=O`, the values for the concentration for half-maximal inhibition (IC50) in series [6] and in series [7] were 1.17 nM and 0.22 nM, respectively. Besides, the inhibition constant (Ki) in series [1] is 0.6 nM; in series [2] it was more than 1000 nM. The Ratio Ki in series [4] was more than 1000.

As for `C[C@H]1CC[C@H](NC(=O)c2cc3cc(-c4ccco4)cnc3n(CCCF)c2=O)CC1`, in series [1], the Ki turned out to be 6800 nM.

Turning to `[2H]C([2H])([18F])C([2H])([2H])C([2H])([2H])C([2H])([2H])n1c(=O)c(C(=O)NC23CC4CC(CC(C4)C2)C3)cc2cccnc21`, the Drug uptake was 6.1 min in series [8]; 1.8 SUV.min in [9]; 3.6 SUV.min in [11]; 5.4 min in [12]; 26 min in series [15]; 1.7 SUV.min in [18]. Moreover, the remaining at 0.5 h in [10] was found to be 23%; in [13], 95%; in series [17] it was 85%. Moreover, the mean residence time MRT in [14] and in series [16] was 23 min each time.

Consider `CC1CCC(NC(=O)c2cc3cc(Br)cnc3n(CCCCF)c2=O)CC1` (mixture of isomers), for which the Ki was 4.8 nM in series [1] and more than 10000 nM in [2].

Turning to `O=C(Nc1ccc(F)nc1)c1cc2cccnc2n(CCCCF)c1=O`, the inhibition constant Ki was more than 1000 nM in [1] and more than 10000 nM in [2].

For the compound `CCCCOc1c(OC)ccc2cc(C(=O)NC3CCCCC3)c(=O)[nH]c12`, the Ratio Ki in series [3] (tested as the 11C-labelled form) stood at 100.

Consider `C[C@H]1CC[C@@H](NC(=O)c2cc3cc(-c4ccco4)cnc3n(CCCF)c2=O)CC1`, for which the values for the Ki in series [1] and in series [2] were 28 nM and more than 10000 nM, respectively.

As for `C[C@H]1CC[C@H](NC(=O)c2cc3cccnc3n(CCOCCF)c2=O)CC1`, in series [1], the Ki turned out to be 780 nM.

Consider `C[C@H]1CC[C@H](NC(=O)c2cc3cc(-c4ccco4)cnc3n(Cc3ccccc3F)c2=O)CC1`, for which the Ki in series [1] was more than 10000 nM.

In the case of `C[C@H]1CC[C@H](NC(=O)c2cc3cc(-c4ccco4)cnc3n(Cc3ccc(F)cc3)c2=O)CC1`, the Ki in [1] came to 86 nM.

With `C[C@H]1CC[C@H](NC(=O)c2cc3cc(-c4ccco4)cnc3n(Cc3cccc(F)c3)c2=O)CC1`, in [1], the Ki is 5000 nM.

Take `C[C@H]1CC[C@@H](NC(=O)c2cc3cc(-c4ccco4)cnc3n(Cc3ccccc3F)c2=O)CC1`: the results for the inhibition constant (Ki) in series [1] and in [2] were 65 nM and more than 10000 nM, respectively. Moreover, the Ratio Ki in series [4] is more than 153.

`C[C@H]1CC[C@H](NC(=O)c2cc3cc(-c4ccco4)cnc3n(CCCCF)c2=O)CC1`: the Ki in [1] was 49 nM.

In turn, `COc1cccc2c(=O)c(C(=O)NC34CC5CC(CC(C5)C3)C4)cn(CCOCCC[18F])c12` came in with a Ki in [19] of 0.9 nM.

The values above are taken from ChEMBL document CHEMBL5143730, “Structure-Based Design, Optimization, and Development of [18F]LU13: A Novel Radioligand for Cannabinoid Receptor Type 2 Imaging in the Brain with PET” (J Med Chem, 2022).
